Measurements taken from patent US20050013875A1, “Immunopotentiators in thermotherapy for cancer” (priority 2001, published 2005).

Columns and labels:
HSP70 [1] = assay: HSP70 immunostain of tumor tissue after GGA administration; type: in vivo; settings: F344 rat MFH tumor, GGA locally injected 12 hours after MCL, tumor cut out 2 hours after GGA, FIG. 1
Method: (§1) As experimental individuals, F344 rats (female, 7 to 8-weeks old) were used. MFH cells 1×10^7 cultured on Petri dish for cell-cultivation were dispersed in about 50 μl of a physiologically buffered saline, and then, the cells suspension was transplanted subcutaneously to a right leg of an experimental individual by using a scalp vein needle (25G×5/8″) (Terumo Corporation) to make a cancer-carried experimental individual. Nembutal (available from Dainippon Pharmaceutical Co., Ltd.) was used for anesthesia, and that diluted to five times (50 mg/kg body weight) was administered to abdominal cavity.
Under anesthesia of a rat, MCL with a concentration of 7.5 mg/ml and 3.3 mg of net weight magnetite was administered to the tumor tissue of the rat 10 days after transplantation of the MFH cells over 30 minutes by using a microsyringe pump (SP100i syringe pump, manufactured by WPI Co.), and thereafter, the rat was allowed to stand for 30 minutes. Magnetic field irradiation was carried out after 24 hours from injection of the MCL.

MFH cells = assay: Tumor regression in MFH cancer-carried F344 rats under MCL hyperthermia (tumor tissue volume); type: in vivo, rat; settings: (GGA+AMF) Group: hyperthermia using MCL and GGA in combination, magnetic field irradiation three times, among 8 individuals
Method: as §1
A slurry of the magnetite (particle diameter 10 nm; available from Toda Kogyo Corporation) was sufficiently washed with a distilled water to remove unnecessary ion components, subjected to ultrasonic wave treatment, to obtain colloidal magnetite. […]
Under anesthesia of experimental individuals, a longer diameter and a shorter diameter of the tumor tissue were measured by using calipers and calculated out from the following formula. […]

HSP70 [2] = assay: In vitro HSP70 expression in heated MFH cells (immunoassay kit, Western Blot); type: cell-based; settings: GGA 10^-5 M or 10^-4 M, 45° C. for 15 minutes, measured 6 hours after heating
Method: Cultivation of MFH cells was carried out by using a 100 mm Petri dish for culturing cells into which 10 ml of a medium had been charged, at 37° C. for 24 hours in an incubator into which 5% of carbon dioxide was added. As the medium, a medium comprising Dulbecco's modified Eagle's Medium that contains 10% fetal bovine serum and, as antibiotics, penicillin G potassium (100 U/ml) and streptomycin sulfate ([…]) was used.
After 6 hours from completion of the heating, a culture broth was removed from the Petri dish for culturing, the cells were washed twice with a physiological saline, a liquid to dissolve the cells attached to a HSP70 immunoassay kit was added to the cells with a predetermined amount to extract HSP70 from the cells. This was quantitated by the immunoassay kit. Also, the cells extract was subjected to electrophoresis, and an amount of HSP70 was qualitatively examined by Western Blot.

Question: With geranylgeranyl acetone [GGA] as the substance, how does the “induction of HSP70 in tumor tissue (HSP70 stain)” value (HSP70 [1]) read?
Answer: induction of HSP70 was confirmed

Question: What about the “individuals whose tumors were completely regressed and cured” value (MFH cells) of the same substance?
Answer: 8 individuals

Question: What about the “expressed amount of the HSP70 after applying thermal stress” value (HSP70 [2]) of the same substance?
Answer: increased depending on an amount of the GGA added
